# Source: article PMC10824666 (Nature Cancer, 2023)
# Like-named read-outs stand apart in the source and are kept apart here.
# Assays:
# Assay in all cases: biochemical
# Design in all cases: Eurofins DiscoverX kinase panel, competitive binding assay at 1 uM, percent of DMSO control
# Details in all cases: competitive binding, percent of DMSO control
# PRKG1 = target: T1, PRKG1 (Homo sapiens, UniProt Q13976)
# T1 sequence (Q13976 1-671): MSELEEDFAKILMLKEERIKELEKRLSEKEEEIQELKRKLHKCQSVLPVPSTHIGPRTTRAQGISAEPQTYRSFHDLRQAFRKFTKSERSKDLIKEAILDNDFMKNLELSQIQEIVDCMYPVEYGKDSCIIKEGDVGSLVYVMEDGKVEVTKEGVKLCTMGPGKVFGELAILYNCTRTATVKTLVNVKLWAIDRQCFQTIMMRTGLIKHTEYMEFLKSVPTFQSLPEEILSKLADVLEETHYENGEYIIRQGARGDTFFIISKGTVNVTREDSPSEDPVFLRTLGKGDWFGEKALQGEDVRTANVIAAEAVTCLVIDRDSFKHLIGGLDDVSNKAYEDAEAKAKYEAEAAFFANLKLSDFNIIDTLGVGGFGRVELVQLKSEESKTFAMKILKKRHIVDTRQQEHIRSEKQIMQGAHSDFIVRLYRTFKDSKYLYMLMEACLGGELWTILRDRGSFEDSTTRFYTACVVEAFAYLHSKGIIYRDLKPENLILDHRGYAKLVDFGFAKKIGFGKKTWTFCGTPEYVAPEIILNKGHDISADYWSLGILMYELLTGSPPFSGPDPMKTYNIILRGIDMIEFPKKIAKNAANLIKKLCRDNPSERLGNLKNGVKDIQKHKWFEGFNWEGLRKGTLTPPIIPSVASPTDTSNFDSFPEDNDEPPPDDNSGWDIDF
# Experimental: (§1) Extended Data Fig. 3 In vitro characterization of potent and selective KIF18A inhibitors. a, KIF18A compounds (1 µM) were assessed across a panel of kinases (n = 96) by a competitive binding assay. Graph presented as percentage of control (POC); dashed line indicates POC value of 30 (n = 1 experiment). b, Tubulin polymerization analysis. Profile of KIF18A compounds (10 µM) relative to DMSO, paclitaxel (5 µM, tubulin stabilizer), or nocodazole (5 µM, tubulin destabilizer). Graphs presented as tubulin fluorescence signal at 440 nm expressed as arbitrary units (a.u.) versus time (min) with area-under-the-curve (AUC) values (n = 1 or 3 independent experiments). c, Mitotic spindle image analysis. […] Representative images were captured with x40 objective (scale bar = 10 µm) (n = 1 experiment). d-f, KIF18A compound effects on HeLa cells. d, Cells were treated for 96 h with DMSO or KIF18A compounds at the indicated concentrations. KIF18A compound concentration-response profiles presented as count relative to the percentage of DMSO control (POC) with count EC50 values (n = 2 independent experiments in duplicate). e, KIF18A protein localization in cells after treatment for 6 hours with DMSO or AM-1882 (0.05 µM). Cells stained to detect DNA, KIF18A, and centrin-3. Representative images of mitotic cells (n = 3 per group) were captured with x60 objective (scale bar = 5 µm) and graphs of line scan measurements were obtained for DNA, KIF18A, and centrin-3 channels expressed as fluorescence intensity (a.u.) versus distance (µm) (n = 1 experiment). f, Mitotic cell fate imaging analysis. HeLa Kyoto cells co-expressing α-tubulin-EGFP and H2B-mCherry proteins released from a G1S block in media containing DMSO or AM-1882 (0.2 µM). Analysis was performed on cells entering the first mitosis (n = 40 cells per group). Graph presented as time in mitosis (h) versus mitotic cell fate, either complete cell division (CCD) or death in mitosis (DiM). Classified cells exiting mitosis by the number of daughter cells and cell death in […] We screened a small-molecule library of diverse compounds for selective inhibitors of KIF18A MT-ATPase motor activity. Two compound hits were discovered that phenocopied the effects of KIF18A KD in cells; these hits are structurally distinct from the KIF18A inhibitor BTB-1 (refs. [27],[28]). […] However, the potency of the KIF18A inhibitors was unaffected by varying ATP and MT concentrations (Extended Data Fig. 2d). This supports our proposed model in which KIF18A inhibitors occupy an allosteric pocket formed by motor helices α4 and α6 close to the motor MT-binding surface. To screen for potential off-target interactions with essential mitotic kinases, three of the KIF18A compounds were profiled against a large panel of kinases. […] We next investigated whether our KIF18A inhibitors affected tubulin polymerization in vitro in the absence of the KIF18A motor. All four KIF18A compounds had tubulin-polymerization profiles similar to that of the DMSO control and distinct from those of the paclitaxel (MT stabilizer) and nocodazole (MT destabilizer) co
# LCK = LCK (Homo sapiens, UniProt P06239)
# Experimental: as §1
# STK32B = STK32B (Homo sapiens, UniProt Q9NY57)
# Experimental: as §1
# MAP3K1 = MAP3K1 (Homo sapiens, UniProt Q13233)
# Experimental: as §1
# Stk33 = Stk33 (Homo sapiens, UniProt Q9BYT3)
# Experimental: as §1
# PRKAA1 = PRKAA1 (Homo sapiens, UniProt Q13131)
# Experimental: as §1
# [1] = read-out: Kinome Profiling performed by Eurofins DiscoverX / AM-1882, 1.0 µM / POC
# [2] = read-out: Kinome Profiling performed by Eurofins DiscoverX / AM-0277, 1.0 µM / POC
# [3] = read-out: Kinome Profiling performed by Eurofins DiscoverX / AM-5308, 1.0 µM / POC
# PRKAA1, sequence (Q13131 whole entry): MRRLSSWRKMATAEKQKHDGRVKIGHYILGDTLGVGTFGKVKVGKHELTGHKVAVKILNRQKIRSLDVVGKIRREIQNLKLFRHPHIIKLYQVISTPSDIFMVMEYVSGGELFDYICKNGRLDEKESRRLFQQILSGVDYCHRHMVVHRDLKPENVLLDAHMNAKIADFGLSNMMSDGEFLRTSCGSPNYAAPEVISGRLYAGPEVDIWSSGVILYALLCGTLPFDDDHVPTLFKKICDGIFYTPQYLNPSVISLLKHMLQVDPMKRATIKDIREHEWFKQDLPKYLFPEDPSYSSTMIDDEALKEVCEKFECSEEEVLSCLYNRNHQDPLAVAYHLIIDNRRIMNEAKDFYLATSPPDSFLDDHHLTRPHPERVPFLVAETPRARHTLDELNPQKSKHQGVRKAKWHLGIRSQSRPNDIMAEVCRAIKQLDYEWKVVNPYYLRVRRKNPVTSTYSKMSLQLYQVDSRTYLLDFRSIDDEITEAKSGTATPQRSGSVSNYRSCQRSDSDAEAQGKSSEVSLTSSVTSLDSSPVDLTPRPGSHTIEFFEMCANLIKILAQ
# PRKAA1, sequence (P54619 whole entry partner): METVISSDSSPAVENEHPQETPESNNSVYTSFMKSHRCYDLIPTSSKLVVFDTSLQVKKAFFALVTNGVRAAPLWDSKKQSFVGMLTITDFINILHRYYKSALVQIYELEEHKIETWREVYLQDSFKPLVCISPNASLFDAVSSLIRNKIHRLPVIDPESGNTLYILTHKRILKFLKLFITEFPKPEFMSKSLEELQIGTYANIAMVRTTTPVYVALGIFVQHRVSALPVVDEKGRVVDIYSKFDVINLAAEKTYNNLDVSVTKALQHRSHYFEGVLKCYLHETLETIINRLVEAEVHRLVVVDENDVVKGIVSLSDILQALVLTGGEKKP
# PRKAA1, sequence (Q9Y478 whole entry partner): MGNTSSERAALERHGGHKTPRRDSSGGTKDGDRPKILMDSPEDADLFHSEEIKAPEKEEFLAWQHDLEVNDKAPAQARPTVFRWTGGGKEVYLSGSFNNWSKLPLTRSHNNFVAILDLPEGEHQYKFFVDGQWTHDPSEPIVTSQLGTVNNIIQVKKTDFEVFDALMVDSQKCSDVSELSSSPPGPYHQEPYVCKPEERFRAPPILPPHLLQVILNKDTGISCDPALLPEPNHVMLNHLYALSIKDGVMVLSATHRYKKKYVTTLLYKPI
# MAP3K1, sequence (Q13233 whole entry): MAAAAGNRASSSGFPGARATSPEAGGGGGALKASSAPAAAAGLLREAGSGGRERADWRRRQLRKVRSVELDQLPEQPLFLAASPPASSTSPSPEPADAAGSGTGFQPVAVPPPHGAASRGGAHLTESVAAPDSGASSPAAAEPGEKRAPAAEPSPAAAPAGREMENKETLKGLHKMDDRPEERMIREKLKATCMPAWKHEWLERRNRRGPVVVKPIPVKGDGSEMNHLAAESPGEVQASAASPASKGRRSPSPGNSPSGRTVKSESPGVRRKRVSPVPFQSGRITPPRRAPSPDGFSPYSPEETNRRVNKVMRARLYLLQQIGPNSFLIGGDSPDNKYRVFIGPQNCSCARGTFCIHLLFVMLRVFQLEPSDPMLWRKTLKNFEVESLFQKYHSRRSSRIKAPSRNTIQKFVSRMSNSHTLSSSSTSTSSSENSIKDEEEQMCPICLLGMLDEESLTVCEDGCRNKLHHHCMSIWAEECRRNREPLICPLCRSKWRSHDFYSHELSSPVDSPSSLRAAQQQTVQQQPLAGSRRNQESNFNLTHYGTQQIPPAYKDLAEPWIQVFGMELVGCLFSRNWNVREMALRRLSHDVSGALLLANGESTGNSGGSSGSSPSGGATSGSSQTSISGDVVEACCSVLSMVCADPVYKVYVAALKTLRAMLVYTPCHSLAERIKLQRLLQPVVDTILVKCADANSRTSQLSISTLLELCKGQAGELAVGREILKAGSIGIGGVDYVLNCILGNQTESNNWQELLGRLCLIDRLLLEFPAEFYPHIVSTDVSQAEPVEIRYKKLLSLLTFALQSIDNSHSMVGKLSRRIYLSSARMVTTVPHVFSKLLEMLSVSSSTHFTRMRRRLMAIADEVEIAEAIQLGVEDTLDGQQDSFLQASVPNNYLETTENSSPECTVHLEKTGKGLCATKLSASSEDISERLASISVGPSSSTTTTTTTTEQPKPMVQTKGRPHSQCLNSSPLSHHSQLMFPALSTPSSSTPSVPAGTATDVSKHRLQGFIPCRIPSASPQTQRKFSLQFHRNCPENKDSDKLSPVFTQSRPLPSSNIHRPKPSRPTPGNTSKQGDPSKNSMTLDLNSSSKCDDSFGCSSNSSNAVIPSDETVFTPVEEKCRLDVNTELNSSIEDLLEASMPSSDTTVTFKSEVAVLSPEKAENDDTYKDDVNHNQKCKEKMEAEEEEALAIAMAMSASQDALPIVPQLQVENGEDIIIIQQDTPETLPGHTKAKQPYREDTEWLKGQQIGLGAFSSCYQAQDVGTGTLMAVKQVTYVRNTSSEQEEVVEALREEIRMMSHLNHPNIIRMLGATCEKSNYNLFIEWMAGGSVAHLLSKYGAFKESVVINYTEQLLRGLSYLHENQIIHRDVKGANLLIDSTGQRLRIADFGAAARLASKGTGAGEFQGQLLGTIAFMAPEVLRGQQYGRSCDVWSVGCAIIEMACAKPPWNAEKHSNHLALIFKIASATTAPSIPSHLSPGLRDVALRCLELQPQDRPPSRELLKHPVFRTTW
# STK32B, sequence (Q9NY57 whole entry): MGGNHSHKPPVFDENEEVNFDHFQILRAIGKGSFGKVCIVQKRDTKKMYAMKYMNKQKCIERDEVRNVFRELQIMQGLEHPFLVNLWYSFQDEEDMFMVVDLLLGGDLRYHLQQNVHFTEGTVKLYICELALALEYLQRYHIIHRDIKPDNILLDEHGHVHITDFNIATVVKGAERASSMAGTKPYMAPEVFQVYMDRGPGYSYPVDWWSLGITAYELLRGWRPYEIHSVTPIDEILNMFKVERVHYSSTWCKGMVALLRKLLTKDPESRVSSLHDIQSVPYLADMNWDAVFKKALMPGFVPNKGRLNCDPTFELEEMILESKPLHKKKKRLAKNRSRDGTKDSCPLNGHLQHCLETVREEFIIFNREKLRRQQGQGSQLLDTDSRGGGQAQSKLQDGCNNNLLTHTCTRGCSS
# Stk33, sequence (Q9BYT3 whole entry): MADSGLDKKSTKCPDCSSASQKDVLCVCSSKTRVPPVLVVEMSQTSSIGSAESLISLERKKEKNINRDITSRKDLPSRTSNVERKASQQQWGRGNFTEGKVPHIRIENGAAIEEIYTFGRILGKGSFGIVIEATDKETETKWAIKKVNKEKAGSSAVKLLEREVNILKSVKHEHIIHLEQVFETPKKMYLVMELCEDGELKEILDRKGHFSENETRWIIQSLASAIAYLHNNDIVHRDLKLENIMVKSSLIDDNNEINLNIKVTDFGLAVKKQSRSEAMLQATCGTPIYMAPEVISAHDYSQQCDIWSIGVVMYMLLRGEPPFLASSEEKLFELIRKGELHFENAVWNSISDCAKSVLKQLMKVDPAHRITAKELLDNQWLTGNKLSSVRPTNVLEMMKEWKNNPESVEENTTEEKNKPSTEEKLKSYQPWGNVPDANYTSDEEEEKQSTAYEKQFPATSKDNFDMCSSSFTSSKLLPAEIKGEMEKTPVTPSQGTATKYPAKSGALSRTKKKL
# LCK, sequence (P06239 whole entry): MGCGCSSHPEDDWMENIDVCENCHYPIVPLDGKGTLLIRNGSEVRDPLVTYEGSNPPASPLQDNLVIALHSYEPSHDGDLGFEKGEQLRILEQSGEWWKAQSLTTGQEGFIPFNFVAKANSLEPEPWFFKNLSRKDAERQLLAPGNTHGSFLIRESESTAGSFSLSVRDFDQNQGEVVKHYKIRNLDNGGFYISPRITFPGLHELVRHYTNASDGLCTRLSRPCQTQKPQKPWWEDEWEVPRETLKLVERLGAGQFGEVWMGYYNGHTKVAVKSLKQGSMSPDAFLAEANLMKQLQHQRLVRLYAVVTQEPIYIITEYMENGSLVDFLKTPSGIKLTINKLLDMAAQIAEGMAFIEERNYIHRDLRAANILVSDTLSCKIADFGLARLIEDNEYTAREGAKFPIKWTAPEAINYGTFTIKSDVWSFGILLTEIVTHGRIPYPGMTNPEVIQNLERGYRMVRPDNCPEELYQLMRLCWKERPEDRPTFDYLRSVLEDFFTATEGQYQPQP
smiles,measurement,setting,value
CC(C)(C)NS(=O)(=O)c1cccc(NC(=O)c2ccc(S(=O)(=O)NC(C)(C)C)cc2N2CCC3(CC2)CC3)c1 [AM-1882],remaining activity at 1 µM,PRKG1; [1],89%
same,remaining activity at 1 µM,LCK; [1],95%
same,remaining activity at 1 µM,STK32B; [1],100%
same,remaining activity at 1 µM,MAP3K1; [1],76.5%
same,remaining activity at 1 µM,Stk33; [1],98%
same,remaining activity at 1 µM,PRKAA1; [1],100%
CC(C)(CO)Nc1ccc(C(=O)Nc2cccc(S(=O)(=O)C3CCCC3)c2)c(N2CCC3(CC2)CC3)n1 [AM-0277],remaining activity at 1 µM,PRKG1; [2],87%
same,remaining activity at 1 µM,LCK; [2],92%
same,remaining activity at 1 µM,STK32B; [2],100%
same,remaining activity at 1 µM,MAP3K1; [2],100%
same,remaining activity at 1 µM,Stk33; [2],86%
same,remaining activity at 1 µM,PRKAA1; [2],96%
C[C@@H]1CN(c2cccc(NC(=O)c3ccc(NS(=O)(=O)CCO)cc3N3CCC4(CC3)CC4)n2)CCO1 [AM-5308],remaining activity at 1 µM,PRKG1; [3],100%
same,remaining activity at 1 µM,LCK; [3],92%
same,remaining activity at 1 µM,STK32B; [3],96%
same,remaining activity at 1 µM,MAP3K1; [3],100%
same,remaining activity at 1 µM,Stk33; [3],89%
same,remaining activity at 1 µM,PRKAA1; [3],97%
